Assay results from PubChem BioAssay AID179 (DTP/NCI, 2004).
“And” between values parts separate entries of the source, which are not always exact repeats. Equal values may be shown once. The source made the active and inactive calls.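 How the source made its calls: active means compounds giving half or more protection of infected cells from virus-caused growth loss, again on retest; inactive means the rest.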

Tested on: CEM cells HIV-1 protection, formazan growth assay
Assay: NCI AIDS Antiviral Assay
Conditions: for IC50: measured here: growth of uninfected CEM cells
Summary of the method: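 Human CEM cells, uninfected and HIV-1-infected, received five drug concentrations, and growth was read by soluble formazan assay. Compounds giving at least 50% protection were retested; reproducible 100% protection defined confirmed active.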

SMILES | EC50 | IC50 | outcome
c1ccc(CCC2=Nc3ccccc3CO2)cc1 | > 110 µM | > 110 µM | –
CC(=O)O[C@H]1CC[C@H]2[C@@H]3CCC4C(C)=NNC(=O)C4[C@H]3CC[C@]12C (stereo not given in full) | > 200 µM | > 200 µM | –
N#Cc1ccc(Nc2nc3nc[nH]c3c(=O)[nH]2)cc1 | > 200 µM | > 200 µM | –
Cc1cn(C2CC(O)C(CO)O2)c(=O)n2nnnc12 (stereo not given) | – | – | inactive
Cc1c2ccnc(C(N)=O)c2c(C)c2c1[nH]c1ccccc12 | – | – | inactive
COc1c2c(nc3ccccc13)-c1cc(C(CC(=O)OC(C)(C)C)C(=O)OC(C)C)c(CO)c(=O)n1C2 (stereo not given) | > 28.8 µM | 0.479 µM | –
CN1C(=O)/C(=C2\SC(=O)N(CN3CCCCC3)C2=O)c2cc(Br)ccc21 | > 200 µM | 91.2 µM | –
CN1C(=O)C2(C=CCC2)c2ccccc21 (stereo not given) | > 1260 µM | 81.3 µM | –
S=C1C(=Nc2ccccc2)N(C2CCCCC2)C(=NC2CCCCC2)N1c1ccccc1 | > 200 µM | 141 µM | –
COC(=O)c1cc(=O)nc2n1C1OC(CO)C(O)C1O2 (stereo not given) | > 200 µM | > 200 µM | –
Nc1c2ccccc2nc2ccc3c(=O)cc(-c4ccccc4)oc3c12 | > 20 µM | 0.912 µM | –
CCCCCCCCC1=C(OC)C(=O)c2ccc(COC(C)=O)nc2C1=O | – | – | inactive
Cc1cccc(C2ON=C(c3ccccc3)N2C23CC4CC(CC(C4)C2)C3)c1 (stereo not given) | > 200 µM | 49 µM | –
CC1(C)OC2OC(COC(=S)SSC(=S)OCC3OC4OC(C)(C)OC4C4OC(C)(C)OC34)C3OC(C)(C)OC3C2O1 (stereo not given) | > 200 µM | 5.62 µM | –
Cn1c(SCc2ccc(F)cc2)nnc1C12CC3CC(CC(C3)C1)C2 | > 200 µM | 105 µM | –
Cc1[nH]cc2c1C(c1ccccc1)=NCC(=O)N2 | > 200 µM | > 200 µM | –
Nc1ccn(C2OC(COC(=O)c3ccccc3)C(OC(=O)c3ccccc3)C2I)c(=O)n1 (stereo not given) | > 200 µM | 35.5 µM | –
O=C(N/C(=C\c1ccc2c(c1)OCO2)c1nc2ccccc2[nH]1)c1ccccc1 | > 26.3 µM | > 26.3 µM | –
COc1cc(OC)c2c(c1)C(=O)c1ccccc1C2=O | – | – | inactive
COC(=O)C(=O)C(C(=O)C(=O)Nc1ccccc1C(=O)OC)c1nc2ccc(C(=O)c3ccccc3)cc2[nH]c1=O (stereo not given) | > 89.1 µM | 52.5 µM | –
Oc1ccccc1/C=N/NC(=S)Nc1cccc2cc3ccccc3nc12 | > 200 µM | 0.575 µM | –
O=C(NC(=Nc1ccccc1)SCSC(=Nc1ccccc1)NC(=O)c1c(Cl)cccc1Cl)c1c(Cl)cccc1Cl | > 200 µM | 14.1 µM | –
COC1/C=C/O[C@@]2(C)Oc3c(C)c(O)c4c(O)c(cc(O)c4c3C2=O)NC(=O)/C(C)=C\C=C\[C@H](C)C(O)[C@@H](C)[C@@H](O)[C@@H](C)[C@H](OC(C)=O)[C@@H]1C (stereo not given in full) | > 174 µM | 8.13 µM | –
CCOC(=O)c1ccc(NC(=O)O/N=C(/Cl)CC)cc1 | – | – | inactive
CC(=O)O[C@H]1C(N(C)C(=O)c2ccccc2)CC[C@]2(C)C3CC[C@@]4(C)C(CC(O)[C@@H]4C(C)N(C)C)[C@@H]3CCC12 (stereo not given in full) | > 25.1 µM | > 25.1 µM | –
C=CC(=O)C#Cc1cnc(OC)nc1OC | > 200 µM | 1.1 µM | –

SMILES | EC50 | IC50 | outcome
CN(C)c1ccc(C=NCC2CCCN3CCCCC23)cc1 (stereo not given) | > 100 µM | > 100 µM | –
C[C@H]1c2cccc(O)c2C(O)=C2C(=O)[C@]3(O)C(O)=C(C(N)=O)C(=O)[C@@H](N(C)C)[C@@H]3[C@@H](O)[C@@H]21 | > 186 µM | 8.32 µM | –
O=S(=O)(O)c1cc(O)c2c(N=Nc3ccc(N=Nc4c(S(=O)(=O)O)cc5cc(Nc6ccccc6)ccc5c4O)c4ccccc34)cc(S(=O)(=O)O)cc2c1 | – | – | inactive
O=C1C=CC(=O)c2c1ccc1c2[nH]c2ccccc21 | – | – | inactive
O=C(c1ccc(Cl)cc1)C1N=NCC1c1ccccc1 (stereo not given) | > 200 µM | 75.9 µM | –
CCN1C[C@]2(COC)C(O)CC(OC)C34[C@@H]5C[C@@]6(O)C(O)[C@@H]5[C@](O)(C(O)[C@@H]6OC)[C@@H](C(OC)[C@@H]32)[C@H]14 (stereo not given in full) | – | – | inactive
O=C1C(=O)c2ccccc2C(O)=C1CC=C(Cl)Cl | > 126 µM | 0.955 µM | –
CCC(C)(CC(=O)O)CC(=O)OC[C@]12CC[C@@H](C(C)C)[C@@H]1[C@H]1CC[C@@H]3[C@@]4(C)CC[C@H](OC(=O)CC(C)(CC)CC(=O)O)C(C)(C)[C@@H]4CC[C@@]3(C)[C@]1(C)CC2 (stereo not given in full) | > 200 µM | 7.08 µM | –
O=C1c2ccccc2-c2c1c1ccccc1c(=O)n2-c1ccccc1 | > 30.9 µM | > 30.9 µM | –
COc1ccc2c(c1OC)C[N+]1(C)CCc3cc4c(cc3C1C2)OCO4 (stereo not given) | > 158 µM | > 158 µM | –
COc1ccc(/C=C/c2nc3ccccc3nc2/C=C/c2ccc(OC)c(OC)c2)cc1OC | > 100 µM | > 100 µM | –
C[CH2][Sn]([CH2]C)([O]C(=O)c1ccccc1F)[O][Sn]([CH2]C)([CH2]C)[O]C(=O)c1ccccc1F | > 39.8 µM | 25.1 µM | –
CCOC(=O)C1(C)C(=O)CC2c3nc4ccccc4cc3CN2C1=O (stereo not given) | > 10 µM | > 10 µM | –
O=c1/c(=C/c2ccc3c(c2)OCO3)sc2nnc(-c3ccco3)n12 | > 55 µM | > 55 µM | –
Cc1csc(/N=C\c2c(O)c3ccccc3oc2=O)n1 | > 200 µM | 36.3 µM | –
NC(=O)C(=O)N/N=C1\C(=O)N(c2ccc(Cl)cc2Cl)C(=O)C1C(=O)Nc1ccc(Cl)cc1Cl (stereo not given) | > 7.08 µM | > 7.08 µM | –
Cc1ccc2nc(N/N=C/c3sccc3C)cc(C)c2c1 | > 200 µM | 49 µM | –
O=C(c1c(O)cc(O)cc1O)c1c(-c2ccc(O)cc2)oc2cc(O)c3c(c12)O[C@H](c1ccc(O)cc1)[C@@H](O)C3 | 16.6 µM | 138 µM | –
O=c1[nH]cc(S)c(=O)[nH]1 | 151 µM | > 200 µM | –
COc1cc(C2=C(c3cc(OC)c4ccccc4c3OC)C(=O)c3ccccc3C2=O)c(OC)c2ccccc12 | > 100 µM | > 100 µM | –
CC(=O)OC12CC(C(F)(F)F)(C(F)(F)F)OC1(OC(C)=O)CC(C(F)(F)F)(C(F)(F)F)O2 (stereo not given) | – | – | inactive
O=c1c2ccc(Cl)cc2nc2n1OCC2 | > 132 µM | > 132 µM | –
CCCCCCCCCCN(CCCCCCCCCC)C(=O)COc1c2cc(C(C)(C)C)cc1Cc1cc(C(C)(C)C)cc(c1OCC(=O)N(CCCCCCCCCC)CCCCCCCCCC)Cc1cc(C(C)(C)C)cc(c1OCC(=O)N(CCCCCCCCCC)CCCCCCCCCC)Cc1cc(C(C)(C)C)cc(c1OCC(=O)N(CCCCCCCCCC)CCCCCCCCCC)C2 | > 50.1 µM | 3.39 µM | –
CCOC(=O)C(=CNc1ccc(F)c(F)c1)C(=O)OCC | > 200 µM | 79.4 µM | –
COC1(C(C)(C)C)C=C(C(C)(C)C)P(=O)(O)O1 (stereo not given) | > 200 µM | > 200 µM | –
Cc1cc(N(C)C)ccc1N=Nc1ccc2ncccc2c1 | – | – | inactive

SMILES | EC50 | IC50 | outcome
CCOC(=O)/C(O)=C(/C(=O)OC)c1ccc(Cl)cc1 | > 427 µM | > 427 µM | –
CCCO/N=C\c1c2c(O)c3c(O)c(C)c4c(c3c1O)C(=O)C(C)(O/C=C\C(OC)C(C)C(OC(C)=O)C(C)C(O)C(C)C(O)C(C)/C=C\C=C(\C)C(=O)N2)O4 (stereo not given) | > 100 µM | 5.25 µM | –
C[N+](C)(CCNc1ccc(NCC[N+](C)(C)Cc2ccc([N+](=O)[O-])cc2)c2c1C(=O)c1ccccc1C2=O)Cc1ccc([N+](=O)[O-])cc1 | > 151 µM | > 151 µM | –
COc1ccc2c(ccc3c(C(=O)NCCCN(C)CCCNC(=O)c4cn(C)c5c4ccc4cc(OC)ccc45)cn(C)c32)c1 | > 200 µM | 1.15 µM | –
CCOC(=O)c1c(-c2ccc(OC)cc2)c(C#N)c(=S)n(C2OC(CO)C(O)C(O)C2O)c1C (stereo not given) | > 200 µM | > 200 µM | –
O=S(=O)(Nc1nc2ccccc2nc1N1CCCCCC1)c1ccccc1 | > 200 µM | 33.9 µM | –
CC1(C)C2CCC13CS(=O)(=O)N(C(=O)[C@H]1CC=CCC1)C3C2 (stereo not given in full) | > 112 µM | > 112 µM | –
CCOC(=O)c1cc(-c2ccn(C(C)=O)c2)c(-c2cc(C)co2)[nH]1 | 18.2 µM | > 200 µM | –
CCOC(=O)c1cnc(-n2[nH]c(C)c(CCO)c2=O)[nH]c1=O | > 200 µM | > 200 µM | –
N#CC1CCCC2SC(F)(F)C(F)(F)C12 (stereo not given) | > 200 µM | 33.1 µM | –
CCOC(=O)c1ccc(Nc2nc3cc(C(F)(F)F)ccc3nc2C(=O)OCC)cc1 | > 200 µM | 83.2 µM | –
CC(C)CC(NC(=O)C(Cc1ccccc1)NC(=O)CNC(=O)CNC(=O)C(N)Cc1ccc(O)cc1)C(=O)NC1C(O)OC(CO)C(O)C1O (stereo not given) | > 2190 µM | > 2190 µM | –
CCN(CC)C(=S)N/N=C/c1cc(OC)ccc1O | > 200 µM | 10 µM | –
CC(=O)OC1=c2ccccc2=C(O)C2C1C=NN2C(C)=O (stereo not given) | > 200 µM | 87.1 µM | –
NC(N)=NS(=O)(=O)c1ccc(NNc2c3ccccc3nc3c(C(=O)Nc4ccc(S(N)(=O)=O)cc4)cccc23)cc1 | > 200 µM | 10.2 µM | –
CCCCCCCCCCCC(O)=C1C(=O)CC(O)CC1=O (stereo not given) | > 17 µM | > 17 µM | –
COc1cc2c(cc1O)C(C)Cc1cc3c(cc1N(C)CC2)OCO3 (stereo not given) | > 117 µM | 2.24 µM | –
O=C1C=C(NC(c2ccccc2)c2nc3ccccc3[nH]2)C(c2ccccc2)N1c1ccccc1 (stereo not given) | – | – | inactive
Cc1c2c(c(C)n1-c1ccccc1)C(=O)N(CCCCN1CCN(c3ccccc3)CC1)C2=O | > 200 µM | 8.91 µM | –
Cc1nn(-c2ccccc2)c2c1CC(=O)Nc1ccccc1-2 | > 2 µM | 0.112 µM | –
O=c1c2ccccc2oc2cc(C(O)c3ccccc3)ccc12 (stereo not given) | > 200 µM | 97.7 µM | –
COc1ccc(Oc2c(OC)cc(NCc3ccc(CN)cc3)c3ncccc23)cc1 | > 200 µM | 27.5 µM | –
O=c1[nH]c(=O)n(C2OC(CF)C(O)C2O)cc1Br (stereo not given) | > 200 µM | > 200 µM | –
O=c1c(Cl)c(Cl)cnn1-c1ccccc1 | > 126 µM | 0.288 µM and 2.63 µM | –
CCCc1cc2c(=O)c(C(=O)OC)c[nH]c2cc1N(CC)CC | > 200 µM | > 200 µM | –
COC(=O)C(=O)C(C(=O)C(=O)Nc1ccc(Cl)c(Cl)c1)c1nc2ccc(C(=O)c3ccccc3)cc2[nH]c1=O (stereo not given) | > 33.1 µM | > 33.1 µM | –
